Measurements published in US20130059787A1, “METHODS OF USING HUMAN PROTEIN KINASE C DELTA VIII AS A BIOMARKER” (UNITED STATES DEPARTMENT OF VETERAN AFFAIRS, priority 2010, published 2013).

Tests used:
SF2/ASF (SRp30a) = experiment: Western blot of NT2 whole cell lysates with specific antibodies; type: cell-based, human; conditions: RA about 10 μM, about 24 h; NT2 cells
Procedure: (§1) FIG. 6 is a series of images illustrating the detection of SR proteins involved in RA-mediated PKXδVIII expression. NT2 cells were treated with RA (about 10 μM) for about 24 h or without RA (control), and Western blot analysis was performed on whole cell lysates using (a) mAb104 antibody that detects all SR proteins and (b) specific antibodies as indicated in the figure. Molecular masses are indicated (kDa).
(§2) Cell lysates (about 40 μg) were separated on 10% SDS-PAGE. […] In apoptotic cells, PARP is cleaved by caspase 3 into an 85 kDa fragment which is detected in addition to the 116 KDa fragment using anti-PARP antibody in western blot analysis. […] (Putt K S, Beilman G J, and H. P J., Direct quantitation of poly(ADP-ribose) polymerase (PARP) activity as a means to distinguish necrotic and apoptotic death in cell and tissue samples. Chembiochem, 2005. 6: p. 53-55)
(§3) (SR) proteins that bind to exonic or intronic splicing enhancers (ESE, ISE) on the pre-mRNA. […] NT2 cells were treated with or without RA (about 24 h), and whole cell lysates were analyzed by Western blot analysis using mAb104 antibody that simultaneously detects the phosphoepitopes on all SR proteins. […]

SC35 (SRp30b) = experiment: as above; type: cell-based, human; conditions: RA about 10 μM, about 24 h; NT2 cells
Procedure: as §1, §2, §3

In the case of `CC1=C(/C=C/C(C)=C/C=C/C(C)=C/C(=O)O)C(C)(C)CCC1` [RA, all-trans-retinoic acid], the “SF2/ASF (SRp30a) expression” value (SF2/ASF (SRp30a)) is reported as “remained relatively constant” and the “SC35 (SRp30b) expression” value (SC35 (SRp30b)) is reported as “increase”.
